These results are taken from patent US4464373A, “4,5-Dihydroimidazo-[1,2-a]quinoxaline-2-carboxylic acids and their derivatives with antiallergic activity” (Roussel Uclaf, priority 1982, dated 1984).

The inhibition in vivo is the change of the read-out against control, counted positive when it falls.

This experiment deals with passive cutaneous reaction mediated by Ig G antibodies. The experiment is described as follows: Passive cutaneous anaphylaxis of the rat (PCR), Ig G mediated, oral. In kind it is in vivo. The conditions noted are these: male Wistar rats, ovalbumin challenge. As for the experimental part: Passive cutaneous anaphylaxis of the rat (PCR)
Passive cutaneous anaphylaxis in the rat was carried out with male Wistar rats weighing 180-200 g which were sensitized by intradermal injection into four sites on the shaved back to produce a passive cutaneous reaction mediated by Ig G antibodies (a 4 hour sensitization following injection of antiserum heated at 56° C. for one hour). Antigen challenge was carried out in the same way; 1 mg of ovalbumen together with 0.5 ml of 1% Evans blue dye solution were injected intravenously and 30 minutes later, the animals were killed and the severity and area of each blue spot was scored when viewed from the reverse side of the skin.

`CCOC(=O)c1cn2c(n1)CN(C(=O)OCC)c1ccccc1-2` [Example 3, Diethyl 4,5-dihydroimidazo[1,2-a]quinoxaline-2,5-dicarboxylate] had an inhibition in vivo at 0.1 mg/kg of 26.3% and an inhibition in vivo at 1 mg/kg of 67.5%.
For `CCOC(=O)c1cn2c(n1)CN(C(=O)Nc1ccccc1)c1ccccc1-2` [Example 4, Ethyl 4,5-dihydro-5-(phenylcarboxamido)imidazo[1,2-a]quinoxaline-2-carboxylate], the inhibition in vivo at 1 mg/kg was determined as 5.2%.
Same read-out and setting: as for `CCOC(=O)c1cn2c(n1)CN(C(=O)NCCN1CCOCC1)c1ccccc1-2` [Example 5B, Ethyl 4,5-dihydro-5-(morpholinoethylcarboxamido)imidazo[1,2-a]quinoxaline-2-carboxylate], the figure is 33.8%.
Regarding `COC(=O)N1Cc2nc(C(=O)O)cn2-c2ccccc21` [Example 6, 4,5-dihydro-5-(methoxycarbonyl)imidazo[1,2-a]quinoxaline-2-carboxylic acid], the inhibition in vivo at 0.1 mg/kg is 19% and at 1 mg/kg the inhibition in vivo was 61.1%.
The compound `CCOC(=O)c1cn2c(n1)CN(C(C)=O)c1ccccc1-2` [Example 7, Ethyl 5-acetyl-4,5-dihydroimidazo[1,2-a]quinoxaline-2-carboxylate] yielded an inhibition in vivo at 0.1 mg/kg of 32.5% and an inhibition in vivo at 1 mg/kg of 49.4%.
Compound `CCOC(=O)c1cn2c(n1)CN(C(=O)OCc1ccccc1)c1ccccc1-2` [Example 8, Ethyl 4,5-dihydro-5-(benzyloxycarbonyl)imidazo[1,2-a]quinoxaline-2-carboxylate] registered an inhibition in vivo at 1 mg/kg of 14.3%.
In turn, `CCOC(=O)c1cn2c(n1)CN(C(=O)OC)c1ccccc1-2` [Example 9, Ethyl 4,5-dihydro-5-(methoxycarbonyl)imidazo[1,2-a]quinoxaline-2-carboxylate] showed an inhibition in vivo at 0.1 mg/kg of 18.8% and an inhibition in vivo at 1 mg/kg of 75.6%.
The compound `CCCOC(=O)N1Cc2nc(C(=O)OCC)cn2-c2ccccc21` [Example 11, Ethyl 4,5-dihydro-5-(propyloxycarbonyl)imidazo[1,2-a]quinoxaline-2-carboxylate] had an inhibition in vivo at 1 mg/kg of 44%.
As to `CCCCOC(=O)N1Cc2nc(C(=O)OCC)cn2-c2ccccc21` [Example 12, Ethyl 4,5-dihydro-5-(butyloxycarbonyl)imidazo[1,2-a]quinoxaline-2-carboxylate], the inhibition in vivo at 1 mg/kg was 26.2%.
In the case of `CCOC(=O)c1cn2c(n1)CN(C(=O)NCCN(CC)CC)c1ccccc1-2` [Example 14, Ethyl 4,5-dihydro-5-(diethylaminoethylcarboxamido)imidazo[1,2-a]quinoxaline-2-carboxylate], testing at 0.1 mg/kg gave an inhibition in vivo of 16.8% and at 1 mg/kg the inhibition in vivo was 42.8%.
